Where two headings read alike, the source gives them in different places.
Assays:
[1] = Animal pharmacokinetic studies in rats; assay type: in vivo; conditions: male rats, 5 mg/kg single intragastric administration, plasma
Experimental: 3. Animal Pharmacokinetic Studies of Compounds:
Animal pharmacokinetic experiments were conducted with 3 healthy adult male rats from Beijing Vital River Laboratory Animal Technology Co., Ltd. The compound was suspended in a 20% solution of sulfobutyl ether-β-cyclodextrin (W/W/V) at a concentration of 1 mg/mL, The rats were subjected to 5 mg/kg suspension of the compound by single intragastric administration with a dosing volume of 5 mL/kg. Animals were fasted overnight prior to the experiment from 10 h before dosing to 4 h alter dosing. Blood was collected 0.25, 0.5, 1, 2, 4, 6, 8 and 24 h after administration. Animals were lightly anesthetized with isoflurane, and approximately 0.4 ml, of whole blood was collected from the orbital venous plexus with a glass blood collection tube, placed in a heparin anticoagulant tube, centrifuged at 4200 rpm for 5 min at 4° C., plasma transferred to the centrifuge tube, and stored at −80° C. until analysis. Test compounds extracted from rat plasma using acetonitrile protein precipitation and internal standard (Warfarin or Propranolol) were used for Plasma sample analysis, and the extracts were analyzed by LC/MS/MS. The measured plasma concentration-time data for individual animals were analyzed using non-compartmental model of WinNonlin (version 5.2.1; Pharsight) software to obtain the following pharmacokinetic parameters: maximum (peak) plasma drug concentration Cmax; a peak time Tmax; half-life T1/2 and the area under the plasma concentration-time curve front time 0 extrapolated to infinite time AUC0-inf.

WEE1 kinase = target: T1, WEE1 kinase (Homo sapiens, UniProt P30291); assay: WEE1 kinase binding assay (LanthaScreen EU); conditions: WEE1 kinase 20 nM, Kinase Tracer 178 100 nM, 23° C. for 60 min, read-out: WEEI (IC50)
T1 construct: purchased Carna bioscience
T1 sequence (P30291 whole entry): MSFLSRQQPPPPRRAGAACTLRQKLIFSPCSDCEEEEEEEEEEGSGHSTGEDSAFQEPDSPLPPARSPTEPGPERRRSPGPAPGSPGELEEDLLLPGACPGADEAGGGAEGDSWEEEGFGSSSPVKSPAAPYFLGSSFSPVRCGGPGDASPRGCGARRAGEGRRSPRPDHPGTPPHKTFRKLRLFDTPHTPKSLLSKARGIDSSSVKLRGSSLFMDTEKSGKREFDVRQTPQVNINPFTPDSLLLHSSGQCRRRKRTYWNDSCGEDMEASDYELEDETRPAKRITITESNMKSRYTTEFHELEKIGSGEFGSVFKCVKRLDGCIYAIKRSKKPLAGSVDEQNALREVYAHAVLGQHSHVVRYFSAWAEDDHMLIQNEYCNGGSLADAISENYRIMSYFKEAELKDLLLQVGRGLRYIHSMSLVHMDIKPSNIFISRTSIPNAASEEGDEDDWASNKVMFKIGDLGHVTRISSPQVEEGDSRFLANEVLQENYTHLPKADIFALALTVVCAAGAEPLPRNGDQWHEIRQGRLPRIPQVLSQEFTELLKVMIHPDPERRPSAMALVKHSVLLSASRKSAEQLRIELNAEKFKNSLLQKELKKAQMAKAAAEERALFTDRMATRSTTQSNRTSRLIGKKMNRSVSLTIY
Experimental: 1. Assay for WEE1 Kinase Inhibitory Activity (IC50) on Compounds
The WEE1 kinase binding assay was established and optimized with LanthaScreen EU for the determination of the activity of compounds. 10 mM compounds were subjected to ten-fold gradient dilution in 100% DMSO (6 concentrations in total), 5 μL of diluent from each concentration was added to 45 μL of reaction buffer (50 mM HEPES (4-hydroxyethylpiperazine ethanesulfonic acid), pH 7.5, 10 mM MgCl2 (magnesium chloride), 1 mM EGTA (ethylene glycol diethyl ether diamine tetraacetic acid), 0.01% Brij-35 (polyoxyethylene lauryl ether)) for blending. On this basis, 2 μL diluent from each concentration was added to 48 μL of reaction buffer for blending as a 4*compound (final concentrations of 1000, 100, 10, 1, 0.1, 0 nM) for later use. Reaction buffer was used to formulate 4*WEE1 kinase (purchased from Carna bioscience, a final concentration of 20 nM), 4*LanthaScreen EU-anti-GST Antibody (purchased from Invitrogen, PV5594, a fuel concentration of 2 nM), and 4*Kinase Tracer 178 (purchased from Invitrogen, PV5593, a final concentration of 100 nM). 2.5 μL of 4*compound was added to a 384-well plate (OptiPlate-384, purchased from PerkinElmer), followed by adding 2.5 μL of 4*WEE1 kinase, standing for 5 min at room temperature. Then 2.5 μL of 4*LanthaScreen EU-anti-GST Antibody was added followed by 2.5 μL of 4*Kinase Tracer 178. The reaction was started by centrifugation (a total reaction volume of 10 μL). The 384-well plate was wrapped with tin foil paper and placed in an incubator at 23° C. for 60 min. Fluorescence values (excitation at 320 nm, detecting emitted light at 665 nm and 615 nm, and a ratio of the two as enzyme activity) were read on Envision (purchased from PerkinElmer). The enzyme activity of each compound was measured at 6 concentrations, and the IC50 value of the compound was calculated using GraFit6.0 software (Erithacus Software).
The aforementioned “*” refers to multiplying, representing multiples.

[2] = system: Human non-small cell lung cancer cells NCI-H1299; assay: NCI-H1299 cell proliferation inhibition (CellTiter-Glo); assay type: cell-based; conditions: Homo sapiens, 72 h, cultured 3 days, table head NCI-H1975, method NCI-H1299
Experimental: 2. Determination of Cell Proliferation Activity of Compounds:
NCI-H1299 cell proliferation inhibition screening method was established using CellTiter-fib detection reagent from Promega.
Human non-small cell lung cancer cells NCI-H1299 were cultured in 25 cm^2 or 75 cm^2 plastic tissue culture flasks (Corning) filled with DMEM (Gibco) medium supplemented with 10% fetal bovine serum (Hyclone) under 37° C., 95% air, and 5% CO2, and subcultured 2-3 times a week.
Cells were seeded at 1000 cells/well in a 96-well cell culture plate (Corning), 195 μL/well, and cultured under 37° C., 95% air, and 5% CO2. The next day test compound was added: 10 mM compounds (dissolved in DMSO) were subjected to 3-fold gradient dilution in DMSO, 2 μL of diluent from each concentration was added to 48 μL of serum-fret medium, and finally 5 μL of the diluted compound was added to the plate seeded with cells. The final concentration of DMSO in the cell culture was 0.1% and the foul concentration of the test compound was 0.3 nM-10 μM. The cells were cultured at 37° C. for 3 days.

Structure (SMILES)	half-life ([1]; rat, po) [h]	AUC(0-inf) ([1]; rat, po, read-out: AUC0-inf) [ng·h/mL]	Cmax ([1]; rat, po, read-out: Cmax) [ng/mL]	Tmax ([1]; rat, po, read-out: Tmax) [h]	AUC(0-inf) [1] [ng·h/mL]	Cmax [1] [ng/mL]	T1/2 [1] [h]	Tmax [1] [h]	IC50 (WEE1 kinase) [nM]	IC50 [2] [nM]
CN1CCN(C2CCN(c3ccc(Nc4ncc5cc(C6CC6)n(-c6cccc(C(C)(C)O)n6)c5n4)cc3)CC2)CC1 [Example 56, 2-(6-(2-((4-(4-(4-methylpiperazin-1-yl)piperidin-1-yl)phenyl)amino)-6-cyclopropyl-7H-pyrrolo[2,3-d]pyrimidin-7-yl)pyridin-2-yl)propan-2-ol]	7.6	1420	116	4	–	–	–	–	–	–
CN1CCN(c2ccc(Nc3ncc4c(F)c(C5CC5)n(-c5cccc(C(C)(C)O)n5)c4n3)cc2)CC1 [Example 57, 2-(6-(2-((4-(4-methylpiperazin-1-yl)phenyl)amino)-5-fluoro-6-cyclopropyl-7H-pyrrolo[2,3-d]pyrimidin-7-yl)pyridin-2-yl)propan-2-ol]	11.2	1080	68	2.3	–	–	–	–	–	–
CN1CCN(C2CCN(c3ccc(Nc4ncc5c(F)c(C6CC6)n(-c6cccc(C(C)(C)O)n6)c5n4)cc3)CC2)CC1 [Example 58, 2-(6-(2-((4-(4-(4-methylpiperazin-1-yl)piperidin-1-yl)phenyl)amino)-5-fluoro-6-cyclopropyl-7H-pyrrolo[2,3-d]pyrimidin-7-yl)pyridin-2-yl)propan-2-ol]	–	–	–	–	1751	83	10.9	6.0	–	–
CN1CCN(C2CCN(c3ccc(Nc4ncc5cc(C6CC6)n(-c6cccc(C(C)(C)O)n6)c5n4)cc3F)CC2)CC1 [Example 77, 2-(6-(2-((3-fluoro-4 (4-(4-methylpiperazin-1-yl)piperidin-1-yl)phenyl)amino)-6-cyclopropyl-7H-pyrrolo[2,3-d]pyrimidin-7-yl)pyridin-2-yl)propan-2-ol]	13.6	2340	98	5.33	–	–	–	–	–	–
CCCc1cc2cnc(Nc3ccc(N4CCC5(CCN(C)CC5)CC4)cc3)nc2n1-c1cccc(C(C)(C)O)n1 [Example 124, 2-(6-(6-propyl-2-((4-(9-methyl-3,9-diazaspiro[5.5]undecan-3-yl)phenyl)amino)-7H-pyrrolo[2,3-d]pyrimidin-7-yl)pyridin-2-yl)propan-2-ol]	–	–	–	–	4066	163	19.2	4.8	1.03	–
Cc1cc2cnc(Nc3ccc(N4CCC(N5CCN(C)CC5)CC4)cc3)nc2n1-c1cccc(C(C)(C)O)n1 [Example 148, 2-(6-(6-methyl-2-((4-(4-(4-methylpiperazin-1-yl)piperidin-1-yl)phenyl)amino)-7H-pyrrolo[2,3-d]pyrimidin-7-yl)pyridin-2-yl)propan-2-ol]	9.2	1100	64	5.4	–	–	–	–	–	–
CCc1cc2cnc(Nc3ccc(N4CCC(N5CCN(C)CC5)CC4)cc3)nc2n1-c1cccc(N=S(C)(C)=O)n1 [Example 154, ((6-(6-ethyl-2-((4 (4-(4-methylpiperazin-1-yl)piperidin-1-yl)phenyl)amino)-7H-pyrrolo[2,3-d]pyrimidin-7-yl)pyridin-2-yl)imino)dimethyl-λ^6-sulfanone]	–	–	–	–	–	–	–	–	0.53	69
CCc1cc2cnc(Nc3ccc(N4CCN(CCN(C)C)CC4)cc3)nc2n1-c1cccc(N=S(C)(C)=O)n1 [Example 155, ((6-(2-((4 (4-(2-(dimethylamino)ethyl)piperazin-1-yl)phenyl)amino)-6-ethyl-7H-pyrrolo[2,3-d]pyrimidin-7-yl)pyridin-2-yl)imino)dimethyl-λ^6-sulfanone]	–	–	–	–	–	–	–	–	1.02	89

— patent US20220194960A1, “WEE1 INHIBITOR AND PREPARATION AND USE THEREOF” (SHOUYAO HOLDINGS (BEIJING) CO., LTD., priority 2019, published 2022)
